The values below are quoted from earlier work in article PMC7898808 (Diabetes, Obesity & Metabolism, 2020).

The structures appear in SMILES notation. Like-named read-outs stand apart in the source and are kept apart here.

For data set [1], the system named is fructose-stimulated DNL. To be noted: single dose of 20 mg, healthy population.
Data set [2] has as its system NAFLD patients. To be noted: 20 mg for 12 weeks.
In data set [3] the test system is steady-state DNL. To be noted: repeat dosing in NASH subjects.
The test system of data set [4] is hepatic DNL.

For the molecule `COc1ccccc1[C@H](Cn1c(=O)n(C(C)(C)C(=O)O)c(=O)c2c(C)c(-c3ncco3)sc21)OC1CCOCC1` [GS-0976], in data set [1], the “reduction of fructose-stimulated DNL” value is recorded as 70%. Also, in data set [2], the “patients achieving relative MRI-PDFF reduction of ≥30%” value is given as 43%. The “decrease of steady-state DNL” value in data set [3] is given as 22%.
As to `Cc1nnc(-c2cc(C(=O)N3CCC(c4ccc(C#N)cc4)CC3)c(C)cc2C2CCC2)[nH]1` [TVB-2640], the DNL inhibition is reported as 23% in data set [4] (50 mg daily dosing for 10 days), 65% in data set [4] (100 mg daily dosing for 10 days) and 77% in data set [4] (150 mg daily dosing for 10 days).
